Experimental data reported in PubChem BioAssay (NCI).
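GI50: concentration for 50% inhibition of growth. TGI: concentration producing complete growth inhibition.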

Tests used:
Assay in all cases: NCI tumour cell line growth inhibition, 384-well format
[1] = system: A498 renal
[2] = system: A549 NSCLC
[3] = system: ACHN renal
[4] = system: BT-549 breast
[5] = system: CAKI-1 renal
[6] = system: CCRF-CEM leukemia
[7] = system: COLO 205 colon
[8] = system: DU-145 prostate
[9] = system: EKVX NSCLC
[10] = system: HL-60(TB) leukemia
[11] = system: HOP-62 NSCLC
[12] = system: HOP-92 NSCLC
[13] = system: IGROV1 ovarian
[14] = system: KM12 colon
[15] = system: LOX IMVI melanoma
[16] = system: M14 melanoma
[17] = system: MALME-3M melanoma
[18] = system: MCF7 breast
[19] = system: MDA-MB-231 breast
[20] = system: MDA-MB-435 melanoma
[21] = system: MDA-MB-468 breast
[22] = system: MOLT-4 leukemia
[23] = system: NCI-H23 lung
[24] = system: NCI-H322M lung
[25] = system: NCI-H460 NSCLC
[26] = system: NCI-H522 lung
[27] = system: NCI/ADR-RES ovarian
[28] = system: OVCAR-3 ovarian
[29] = system: OVCAR-4 ovarian
[30] = system: OVCAR-5 ovarian
[31] = system: OVCAR-8 ovarian
[32] = system: PC-3 prostate
[33] = system: RPMI-8226 leukemia
[34] = system: RXF 393 renal
[35] = system: SF-268 CNS
[36] = system: SF-295 CNS
[37] = system: SF-539 CNS
[38] = system: SK-MEL-2 melanoma
[39] = system: SN12C renal
[40] = system: SNB-19 CNS
[41] = system: SNB-75 CNS
[42] = system: SR leukemia
[43] = system: SW-620 colon
[44] = system: T-47D breast
[45] = system: TK-10 renal
[46] = system: UACC-257 melanoma
[47] = system: UO-31 renal

In the case of `CC(=O)OC1C(C)OC(Oc2c(-c3ccc(O)cc3)oc3cc(O)cc(O)c3c2=O)C(O)C1OC(C)=O` (centres undefined), the GI50 [1] is reported as 92.1 µM, the TGI [1] is reported as > 100 µM and the GI50 [2] is reported as > 100 µM. The TGI [2] was > 100 µM, the GI50 [3] was 74.5 µM and the TGI [3] was > 100 µM. The GI50 [4] was 19.4 µM, the TGI [4] was 44.7 µM and the GI50 [5] was > 100 µM. For the same molecule, the TGI [5] was > 100 µM, the GI50 [6] was 20.2 µM and the TGI [6] was 37.6 µM. For the same molecule, the GI50 [7] was 93.1 µM, the TGI [7] was > 100 µM and the GI50 [8] was 27.6 µM. The TGI [8] was 77.1 µM, the GI50 [9] was 83.8 µM and the TGI [9] was > 100 µM. The GI50 [10] was 17.5 µM, the TGI [10] was 31.5 µM and the GI50 [11] was 20.8 µM. The TGI [11] was 49 µM, the GI50 [12] was 28.6 µM and the TGI [12] was 76.8 µM. For the same molecule, the GI50 [13] was 44.7 µM, the TGI [13] was > 100 µM and the GI50 [14] was 41.9 µM. The TGI [14] was > 100 µM, the GI50 [15] was 31.6 µM and the TGI [15] was > 100 µM. For the same molecule, the GI50 [16] was 39.8 µM, the TGI [16] was > 100 µM and the GI50 [17] was 20.2 µM. For the same molecule, the TGI [17] was 49.8 µM, the GI50 [18] was 37.2 µM and the TGI [18] was > 100 µM. The GI50 [19] was 25.7 µM, the TGI [19] was 74.1 µM and the GI50 [20] was 40.8 µM. For the same molecule, the TGI [20] was > 100 µM, the GI50 [21] was 19.6 µM and the TGI [21] was 38.7 µM. For the same molecule, the GI50 [22] was 17.4 µM, the TGI [22] was 31.9 µM and the GI50 [23] was 28.8 µM. The TGI [23] was 82.3 µM, the GI50 [24] was 46.9 µM and the TGI [24] was > 100 µM. For the same molecule, the GI50 [25] was 39.5 µM, the TGI [25] was > 100 µM and the GI50 [26] was 20.5 µM. The TGI [26] was 46.2 µM, the GI50 [27] was > 100 µM and the TGI [27] was > 100 µM. For the same molecule, the GI50 [28] was 23.3 µM, the TGI [28] was 57.7 µM and the GI50 [29] was 36.4 µM. The TGI [29] was > 100 µM, the GI50 [30] was > 100 µM and the TGI [30] was > 100 µM. The GI50 [31] was 31.4 µM, the TGI [31] was > 100 µM and the GI50 [32] was 38.9 µM. The TGI [32] was > 100 µM, the GI50 [33] was 15.1 µM and the TGI [33] was 30.8 µM. The GI50 [34] was 23 µM, the TGI [34] was 65.9 µM and the GI50 [35] was 28.8 µM. The TGI [35] was 92.7 µM, the GI50 [36] was 33.9 µM and the TGI [36] was > 100 µM. The GI50 [37] was > 100 µM, the TGI [37] was > 100 µM and the GI50 [38] was 30 µM. The TGI [38] was 73.8 µM, the GI50 [39] was 32.2 µM and the TGI [39] was > 100 µM. For the same molecule, the GI50 [40] was 50.4 µM, the TGI [40] was > 100 µM and the GI50 [41] was 32 µM. The TGI [41] was 97 µM, the GI50 [42] was 17.7 µM and the TGI [42] was 34.2 µM. For the same molecule, the GI50 [43] was 59.1 µM, the TGI [43] was > 100 µM and the GI50 [44] was 19.5 µM. The TGI [44] was 47.7 µM, the GI50 [45] was > 100 µM and the TGI [45] was > 100 µM. For the same molecule, the GI50 [46] was 43.5 µM, the TGI [46] was > 100 µM and the GI50 [47] was > 100 µM. The TGI [47] was > 100 µM.
